Results taken from US20260176285A1, “SALT OF DIOXANE QUINOLINE COMPOUND, CRYSTAL FORM THEREOF, PREPARATION METHODS THEREFOR AND USES THEREOF” (Beijing Scitech-MQ Pharmaceuticals Limited, priority 2022, published 2026).

Legend:
[1] = Dynamic solubility in water, SGF, FaSSIF and FeSSIF; type: physicochemical; parameters: S (dynamic solubility): unit not given here; settings: listed as Mucate salt crystal form A-I; for S (dynamic solubility): 37° C., feed 10 mg/mL
In short: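 Free form and salt crystal forms tested over time in water, SGF (pH 1.8), FaSSIF (pH 6.5) and FeSSIF (pH 5.0), simulated fluids made with SIF powder. At each time point samples were centrifuged, passed through 0.45 μm PTFE, and filtrate concentration (HPLC) and pH measured.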

[2] = Hygroscopicity by dynamic moisture sorption (DVS); type: physicochemical; settings: DVS, listed as Mucate salt crystal form A-I
In short: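 Mass change of salt and free-form crystal samples recorded at 25° C over a 0% RH-95% RH-0% RH cycle. Steps were 10% RH (last step 5%) with a dm/dt equilibrium criterion of 0.002%/min.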

[3] = system: human lung cancer cells EBC-1; experiment: Efficacy in nude mouse tumor-bearing model of human lung cancer cells EBC-1; type: in vivo, Balb/c nude mouse
Source text: In this assay, the free compound of formula (I) of the present application and different salts of the compound prepared in Examples 1, 2 and 5 were orally administered to a nude mouse tumor-bearing model of human lung cancer cells EBC-1 to study their effects on tumor growth.
Preparation of test compounds: an appropriate weight of the test compound (including the free form of the compound of formula (I) and different salts of the compound prepared in Examples 1, 2 and 5) was weighed, completely suspended/dissolved in an appropriate volume of 0.1% sodium carboxymethyl cellulose, stirred and vortexed to give a uniform solution or suspension.
Methods: All assays were authorized by the Animal Welfare Committee. EBC-1 in the logarithmic growth phase was inoculated into immune-deficient nude mice (BALB/c nude, female, 6-8 weeks old, weighing 18±2 g), subcutaneously on the right back, with a cell inoculation amount of 5×10^6/mouse. After the tumor grew to 150-200 mm^3, the animals were randomly divided into groups, 6 mice per group. The dose of each test substance was set at 15 mg/kg and 7.5 mg/kg (both based on the concentration of the effective formula (I) compound), and administered once a day for about 3 weeks. The test compounds were freshly prepared each day before use. During the assay, the tumor diameter was measured twice a week, and the mice were weighed at the same time. The calculation formula of tumor volume (TV) is: TV=1/2×a×b^2, where a and b represent length and width, respectively. The relative tumor volume (RTV) was calculated based on the measurement results, and the calculation formula is: RTV=Vt/V0, wherein V0 is the tumor volume measured at the time of cage grouping and dosing initiation (i.e., d0), and Vt is the tumor volume at each measurement. The evaluation index of antitumor activity is the relative tumor proliferation rate T/C (%), calculated as follows: T/C (%)=(TRTV/CRTV)×100%, TRTV: RTV of the treatment group; CRTV: RTV of the negative control group. T and C represent the average tumor volume at a certain time point in the drug administration group and the control group, respectively.

[4] = Solid-state stability evaluation (XRPD, HPLC); type: physicochemical; settings: listed as Mucate salt crystal form A-I
Protocol: The following 6 test samples were placed under 25° C./60% RH and 40° C./75% RH conditions for 1 week, and then the physical and chemical stability of the samples was tested by XRPD and HPLC.
At the same time, after the p-toluenesulfonate salt crystal form A-II and crystal form B-III solids were placed at 80° C. for 24 hours, the physical and chemical stability of the samples were tested by XRPD and HPLC.

## O=C(Nc1ccc(F)cc1)C1(C(=O)Nc2ccc(Oc3ccnc4cc(OCCCN5CCOCC5)c5c(c34)OCCO5)c(F)c2)CC1 [Example 1, N-(3-fluoro-4-((5-(3-morpholinopropoxy)-2,3-dihydro-[1,4]dioxano[2,3-f]quinolin-10-yl)oxy)phenyl)-N-(4-fluorophenyl)cyclopropane-1,1-dicarboxamide]
[1]; FaSSIF, 1 hour
  S (dynamic solubility): 0.0036
  pH of the filtrate: 6.3
[1]; FaSSIF, 2 hours
  S (dynamic solubility): 0.0048
  pH of the filtrate: 6.2
[1]; FaSSIF, 4 hours
  S (dynamic solubility): 0.0042
  pH of the filtrate: 6.2
[1]; FaSSIF, 24 hours
  S (dynamic solubility): 0.0070
  pH of the filtrate: 5.5
[1]; FeSSIF, 1 hour
  S (dynamic solubility): 1.3
  pH of the filtrate: 4.9
[1]; FeSSIF, 2 hours
  S (dynamic solubility): 1.6
  pH of the filtrate: 4.9
[1]; FeSSIF, 4 hours
  S (dynamic solubility): 1.8
  pH of the filtrate: 4.9
[1]; FeSSIF, 24 hours
  S (dynamic solubility): 1.8
  pH of the filtrate: 4.9
[1]; H2O, 1 hour
  S (dynamic solubility): 0.11
  pH of the filtrate: 4.5
[1]; H2O, 2 hours
  S (dynamic solubility): 0.11
  pH of the filtrate: 4.4
[1]; H2O, 4 hours
  S (dynamic solubility): 0.13
  pH of the filtrate: 4.8
[1]; H2O, 24 hours
  S (dynamic solubility): 0.11
  pH of the filtrate: 4.7
[1]; SGF, 1 hour
  S (dynamic solubility): 5.4
  pH of the filtrate: 3.1
[1]; SGF, 2 hours
  S (dynamic solubility): 5.2
  pH of the filtrate: 3.1
[1]; SGF, 4 hours
  S (dynamic solubility): 5.1
  pH of the filtrate: 3.1
[1]; SGF, 24 hours
  S (dynamic solubility): 5.3
  pH of the filtrate: 3.2
[2]; 25° C./80% RH
  Moisture adsorption (25° C./80% RH): 2.09%
[2]; 25° C.
  Hygroscopicity: Hygroscopic
[3]; 7.5 mg/kg oral once a day, day 3
  T/C (relative tumor proliferation rate): 71.1%
[3]; 7.5 mg/kg oral once a day, day 7
  T/C (relative tumor proliferation rate): 60.2%
[3]; 7.5 mg/kg oral once a day, day 10
  T/C (relative tumor proliferation rate): 49.9%
[3]; 7.5 mg/kg oral once a day, day 14
  T/C (relative tumor proliferation rate): 46.9%
[3]; 7.5 mg/kg oral once a day, day 18
  T/C (relative tumor proliferation rate): 47.4%
[3]; 7.5 mg/kg oral once a day, day 21
  T/C (relative tumor proliferation rate): 43.73%
[3]; 15 mg/kg oral once a day, day 3
  T/C (relative tumor proliferation rate): 66.3%
[3]; 15 mg/kg oral once a day, day 7
  T/C (relative tumor proliferation rate): 40.4%
[3]; 15 mg/kg oral once a day, day 10
  T/C (relative tumor proliferation rate): 30.9%
[3]; 15 mg/kg oral once a day, day 14
  T/C (relative tumor proliferation rate): 25.3%
[3]; 15 mg/kg oral once a day, day 18
  T/C (relative tumor proliferation rate): 25.4%
[3]; 15 mg/kg oral once a day, day 21
  T/C (relative tumor proliferation rate): 19.41%
[4]; 25° C./60% RH, 1 week
  Purity: 99.54 area %
  Purity/initial purity: 100.0%
[4]; 40° C./75% RH, 1 week
  Purity: 99.56 area %
  Purity/initial purity: 100.0%
[4]; Starting
  Purity: 99.56 area %
